The values that follow come from patent US20190307783A1, “USE OF ANTIVIRALS TO INHIBIT PROTOZOAN VIRUSES” (priority 2016, published 2019).

SMILES strings stand for the structures. Entries after “also recorded” stand apart in the source; their conditions may differ.

One assay has as its system LbrLRV1. The assay is described as follows: LRV1 inhibition in L. braziliensis strains bearing LRV1. The note with it: Leishmania braziliensis. Type of assay: cell-based, Leishmania RNA virus 1 in Leishmania braziliensis. The protocol: For 2CMA, the EC50 was estimated to be ˜3 μM for LRV1 capsid inhibition, versus >100 μM for parasite growth (FIG. 11A), at least 30-fold selective. […] Several studies were carried out with L. braziliensis strains bearing LRV1 (12). The 2CMA EC50 for LbrLRV1 was similar to that seen with LgyLRV1 (˜3 μM); however, parasites were somewhat more susceptible to growth inhibition (EC50 50-100 μM). Because the available quantities of 7d2CMA were limiting and both compounds were similarly selective for L. guyanensis, we focused thereafter on 2CMA.
Most studies were performed using luciferase-expressing transfectants of L. guyanensis (MHOM/BR/78/M4147) described previously [LRV1^+ LgyM4147/SSU:IR2SAT-LUC(b)c3 and LRV^−LgyM4147/pX63HYG/SSU:IR2SAT-LUC(b)c4] (54); these lines are termed LgyLRV1^+ and LgyLRV1^−, respectively. Two strains of LRV1^+L. braziliensis were examined: LEM2780 (MHOM/BO/90/CS) and LEM3874 (MHOM/BO/99/IMT252 no. 3) (12). Parasites were grown in Schneider's media (Sigma Aldrich, St. Louis, Mo., USA) prepared according to the supplier's instructions with pH adjusted to 6.5 and supplemented with 0.76 mM hemin, 2 μg/mL biopterin, 50 U/mL penicillin, 50 μg/mL streptomycin, and 10% (vol/vol) heat-inactivated FBS. Cell concentrations were determined using a Coulter Counter ([…], Indianapolis, Ind., USA).

Another assay addresses Lgy LRV1 RDRP (Leishmania RNA virus 1 - 4, UniProt Q02382). Description: RDRP assay of purified virions, [α-32P]UTP incorporation. Type of assay: biochemical, Leishmania RNA virus 1 (Lgy strain M4147). As to conditions: concentrations up to 1000 μM; listed as 2CMA. The protocol:
RDRP assays were carried out with LRV1 virions purified from Lgy strain M4147 by an established cesium chloride (CsCl) equilibrium ultracentrifugation procedure {Widmer, 1989; Widmer, 1990}. Following separation, virus particles were detected and quantified by their reactivity with an anti-capsid antibody (FIG. 21). We reproducibly observed three overlapping ‘peaks’, designated low-, medium-, and high-density (LD, MD and HD) in order of increasing density. […] The densities of the Lgy LRV1 LD, MD and HD peaks were 1.29, 1.36 and 1.41 g/mL, in good agreement with the densities of L-A virus particles bearing ssRNA- and dsRNA- (1.31 and 1.41 g/mL, respectively) {Esteban, 1986}. […]
To measure RDRP activity, purified virions were allowed to incorporate [α-^32P]UTP in the presence of the remaining nucleoside triphosphates for 1 hour, a time chosen to allow one round of transcription or replication of the viral genome {Widmer, 1990}. RNA was purified and separated by native gel electrophoresis, and the products were visualized and quantified. […]
RDRP activity of purified virions was measured using an [α-^32P]UTP incorporation assay described previously{Widmer, 1990}. […] The standards lane was excised and stained with ethidium bromide, while the radiolabeled products were detected by exposing an imaging plate for 24 hours and reading it with a FLA-5100 phosphoimager (Fujifilm, Tokyo, Japan). […]

Chain of Lgy LRV1 RDRP (Q02382 whole entry): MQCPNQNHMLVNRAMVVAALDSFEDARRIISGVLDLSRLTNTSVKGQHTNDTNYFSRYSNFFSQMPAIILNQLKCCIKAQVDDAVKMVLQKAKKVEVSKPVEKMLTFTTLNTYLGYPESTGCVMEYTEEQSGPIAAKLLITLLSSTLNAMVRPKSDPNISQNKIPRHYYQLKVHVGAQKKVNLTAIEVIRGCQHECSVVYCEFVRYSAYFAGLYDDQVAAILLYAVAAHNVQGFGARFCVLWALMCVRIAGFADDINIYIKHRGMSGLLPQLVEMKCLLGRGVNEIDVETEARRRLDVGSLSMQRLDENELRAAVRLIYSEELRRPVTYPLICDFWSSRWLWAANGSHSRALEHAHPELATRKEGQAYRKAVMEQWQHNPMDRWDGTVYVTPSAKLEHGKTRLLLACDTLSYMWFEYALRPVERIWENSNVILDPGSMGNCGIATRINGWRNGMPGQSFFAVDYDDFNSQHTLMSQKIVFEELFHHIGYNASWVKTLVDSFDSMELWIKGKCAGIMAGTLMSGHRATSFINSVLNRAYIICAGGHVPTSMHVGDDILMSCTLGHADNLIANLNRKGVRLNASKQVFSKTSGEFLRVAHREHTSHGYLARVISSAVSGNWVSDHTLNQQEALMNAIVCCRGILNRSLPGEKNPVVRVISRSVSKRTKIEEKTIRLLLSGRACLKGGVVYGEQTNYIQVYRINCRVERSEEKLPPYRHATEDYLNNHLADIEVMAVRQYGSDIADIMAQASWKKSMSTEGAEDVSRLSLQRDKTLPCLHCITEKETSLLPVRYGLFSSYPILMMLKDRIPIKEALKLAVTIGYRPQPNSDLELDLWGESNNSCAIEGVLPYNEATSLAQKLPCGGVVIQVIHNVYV

A word on the EC50: it is the concentration that produces a half-maximal response. In the case of `C[C@@]1(O)[C@H](O)[C@@H](CO)O[C@H]1n1cnc2c(N)ncnc21` [2′C-methyadenosine, 2′-C-methyladenosine], the EC50 with LbrLRV1 is about 3000 nM. At Lgy LRV1 RDRP, the “Inhibition of RDRP activity, in words” value was “did not measurably inhibit; also recorded: completely inactive”.
